Measured values from US20210137960A1, “COMPOSITIONS AND METHODS FOR INHIBITION OF NUCLEAR-PENETRATING ANTIBODIES” (Yale University, priority 2018, published 2021).
Like-named read-outs stand apart in the source and are kept apart here.

Columns and labels:
DLD1 colon cancer cells = assay: Protein L immunodetection of variant 13 nuclear penetration with importin pathway inhibitors, DLD1; assay type: cell-based; settings: 10 μM variant 13 co-incubated with 0, 10, 25, or 50 μM inhibitor
Method: (§1) For all experiments, cells were cultivated overnight to allow for attachment, followed by pretreatment with either control medium (absence of inhibitor), or medium containing inhibitor for durations previously-reported in the literature (see Table 5, below).
(§2) For endocytosis inhibition experiments, cells were cultivated in serum-free medium containing 1% v/v BSA to deplete endogenous serum levels. Following preincubation with inhibitors, cells were treated with either control medium or 10 μM variant 13, and the same dose of small molecule inhibitor for a further 30 minutes. For all experiments, cells were washed thrice, followed by immediate fixation with pre-chilled ice-cold ethanol. Subsequently, treated cells were probed using a protein L immunodetection approach to probe variant 13 nuclear uptake (Rattray et al., Biochem Biophys Res Commun 496, 858-864 (2018)). All monolayers were immediately imaged following color development on an Evos Fl microscope.
(§3) DLD-1 and A549 cells were treated with 10 μM variant 13 co-incubated with 0, 10, 25, or 50 μM concentrations of ivermectin. Relative intensity of protein L nuclear staining as compared to amount of stain in cells treated without ivermectin was also quantified by ImageJ.
(§4) DLD-1 cells and A549 cells were treated with 10 μM variant 13 co-incubated with 0, 10, 25, or 50 μM concentrations of importazole and then immunostained for protein L.
(§5) DLD-1 cells and A549 cells were treated with 10 μM variant 13 co-incubated with 0, 10, 25, or 50 μM concentrations of mifepristone and then immunostained for protein L.

A549 lung cancer cells = assay: Protein L immunodetection of variant 13 nuclear penetration with importin pathway inhibitors, A549; assay type: cell-based; settings: 10 μM variant 13 co-incubated with 0, 10, 25, or 50 μM inhibitor
Method: as §1, §2, §3, §4, §5

MCF7 breast cancer cells = assay: Uptake of rhodamine-labeled variant 13 in live cells, light and fluorescence microscopy, MCF7; assay type: cell-based; settings: 50 μM ivermectin
Method: Live MCF7 breast cancer cells were treated with control or rhodamine-labeled variant 13 (Rh-variant 13)+/−50 μM ivermectin and were then visualized under light and fluorescence microscopy.

DLD1 cells [1] = assay: SLE sera nuclear import with nuclear import inhibitors, anti-human IgG immunostain; assay type: cell-based; settings: for effect on nuclear uptake of ANAs in SLE-19: SLE-19 serum
Method: DLD1 cells were pre-treated with either control media, or media containing nuclear import inhibitors for four hours. Subsequent co-treatment with inhibitor and patient SLE serum (diluted 1:50) was performed for one hour at 37° C. Following treatment, cells were fixed, blocked and probed with an alkaline-phosphatase anti-human IgG […] antibody overnight (Fisher Scientific). Cell monolayers were washed, and color developed using NBT/BCIP reagent (Fisher Scientific) for the same duration across all experiments. Following chromogen color development, all monolayers were washed, and brightfield images acquired immediately on an Evos F microscope.

DLD1 cells [2] = assay: Nuclear penetration of scleroderma autoantibody SSC and effect of ivermectin, microscopic analysis; assay type: cell-based
Source text: In addition to SLE, cell-penetrating autoantibodies are detected in other autoimmune diseases such as scleroderma. […] SSC was expressed in and purified from HEK293T cells.

DLD1 cancer cells = assay: Uptake of rhodamine-labeled variant 13 in live cells, light and fluorescence microscopy, DLD1; assay type: cell-based; settings: 50 μM importazole
Method: Live DLD1 cancer cells were treated with control or rhodamine-labeled variant 13 (Rh-variant 13)+/−50 μM importazole and were then visualized under light and fluorescence microscopy.

cell nuclei [3] = settings: known anti-dsDNA autoantibodies; cited from earlier work
cell nuclei [4] = assay: Nuclear penetration of humanized 3E10 variants compared with original 3E10 (D31N) di-scFv; assay type: cell-based; settings: for Nuclear localizing?: humanized 3E10 variants; for nuclear penetration compared to the prototype: vs original 3E10 (D31N) di-scFv
Source text: A range of humanized 3E10 variants were generated with subtle differences in framework and CDR sequences.

Row | Molecule | effect on nuclear penetration by variant 13 (DLD1 colon cancer cells) | effect on nuclear penetration by variant 13 (A549 lung cancer cells) | effect on nuclear uptake of ANAs in SLE-19 (DLD1 cells [1]) | Nuclear localizing? (cell nuclei [4]) | nuclear penetration compared to the prototype (cell nuclei [4]) | other results
1 | 22,23-dihydroavermectin B1a/B1b [ivermectin] | dose-dependent reduction in nuclear penetration | dose-dependent reduction in nuclear penetration | – | – | – | effect on cellular/nuclear uptake of rhodamine-labeled variant 13 (MCF7 breast cancer cells): inhibited cellular/nuclear uptake; effect on nuclear staining by ANAs in SLE sera (DLD1 cells [1]; SLE-4, 8, 9, and 19 serum diluted 1:50, pre- and co-treatment): reduced the nuclear staining associated with each sample; effect on nuclear uptake of SSC (DLD1 cells [2]): inhibited the nuclear uptake of SSC
2 | CC(Nc1nc(N2CCCC2)nc2ccccc12)c1ccccc1 (centres unmarked) [importazole, N-(1-phenylethyl)-2-pyrrolidin-1-ylquinazolin-4-amine] | reduction in nuclear penetration | reduction in nuclear penetration | inhibit nuclear uptake of ANAs in SLE-19 in a dose-dependent manner | – | – | effect on nuclear uptake of rhodamine-labeled variant 13 (DLD1 cancer cells): inhibited nuclear uptake
3 | CC#C[C@]1(O)CC[C@H]2[C@@H]3CCC4=CC(=O)CCC4=C3[C@@H](c3ccc(N(C)C)cc3)C[C@@]21C [mifepristone, 11β-(4-Dimethylamino)phenyl-170-hydroxy-17-(1-propynyl)-estra-4,9-dien-3-one] | reduction in nuclear penetration | reduction in nuclear penetration | inhibit nuclear uptake of ANAs in SLE-19 in a dose-dependent manner | – | – | –
4 | 5C6: monoclonal anti-DNA antibody with nucleolytic activity from MRL/lpr lupus mouse model hybridoma (antibody, listed as Mus musculus, V domains shown) VL: DIVLTQSPASLAAVSLGERATISYRASKSVSTSGYSYMHWNQQKPGQAPRLLIYLVSNLESGVPARFSGSGSGTDFTLNIHPVEEEDAATYYCQHIRELDTFFGGGTKLEIK VH: QLKLVESGGGLVKPGGSLKLSCAASGFTFSSYTMSWVRQTPAKRLEWVATISSGGGSTYYPDSVKGRFTISRDNARNTLYLQMSSLRSEDTAMYYCARRAYSKRGAMDYWGQGTSVTVSS | – | – | – | – | – | Nuclear localizing? (cell nuclei [3]): Yes
5 | variant 10: humanized 3E10 variant, SEQ ID NOS:14, 22, and 32 (protein) chain 1: EVQLVESGGGLVQPGGSLRLSCAASGFTFSNYGMHWVRQAPGKGLEWVSYISSSSSTIYYADSVKGRFTISRDNAKNSLYLQMNSLRAEDTAVYYCARRGLLLDYWGQGTTVTVSS chain 2: DIQMTQSPSSLSASVGDRVTITCRASKSVSTSSYSYMHWYQQKPGKAPKLLIKYASYLESGVPSRFSGSGSGTDFTLTISSLQPEDFATYYCQHSREFPWTFGQGTKVEIK chain 3: DIQMTQSPSSLSASVGDRVTITCRASKSVSTSSYSYMHWYQQKPGKAPKLLIKYASYLESGVPSRFSGSGSGTDFTLTISSLQPEDFATYYCQHSREFPWTFGQGTKVEIKRADAAPGGGGSGGGGSGGGGSEVQLVESGGGLVQPGGSLRLSCAASGFTFSNYGMHWVRQAPGKGLEWVSYISSSSSTIYYADSVKGRFTISRDNAKNSLYLQMNSLRAEDTAVYYCARRGLLLDYWGQGTTVTVSSASTKGPSVFPLAPLESSGSDIQMTQSPSSLSASVGDRVTITCRASKSVSTSSYSYMHWYQQKPGKAPKLLIKYASYLESGVPSRFSGSGSGTDFTLTISSLQPEDFATYYCQHSREFPWTFGQGTKVEIKRADAAPGGGGSGGGGSGGGGSEVQLVESGGGLVQPGGSLRLSCAASGFTFSNYGMHWVRQAPGKGLEWVSYISSSSSTIYYADSVKGRFTISRDNAKNSLYLQMNSLRAEDTAVYYCARRGLLLDYWGQGTTVTVSS | – | – | – | Yes | penetrated nuclei very well | –
6 | variant 13: humanized 3E10 variant, SEQ ID NOS:17, 23, and 35, expressed in a CHO cell system (protein) chain 1: EVQLVESGGGLVQPGGSLRLSCAASGFTFSNYGMHWVRQAPGKGLEWVSYISSGSSTIYYADSVKGRFTISRDNAKNSLYLQMNSLRAEDTAVYYCARRGLLLDYWGQGTTVTVSS chain 2: DIQMTQSPSSLSASLGDRATITCRASKTVSTSSYSYMHWYQQKPGQPPKLLIKYASYLESGVPSRFSGSGSGTDFTLTISSLQPEDAATYYCQHSREFPWTFGGGTKVEIK chain 3: DIQMTQSPSSLSASLGDRATITCRASKTVSTSSYSYMHWYQQKPGQPPKLLIKYASYLESGVPSRFSGSGSGTDFTLTISSLQPEDAATYYCQHSREFPWTFGGGTKVEIKRADAAPGGGGSGGGGSGGGGSEVQLVESGGGLVQPGGSLRLSCAASGFTFSNYGMHWVRQAPGKGLEWVSYISSGSSTIYYADSVKGRFTISRDNAKNSLYLQMNSLRAEDTAVYYCARRGLLLDYWGQGTTVTVSSASTKGPSVFPLAPLESSGSDIQMTQSPSSLSASLGDRATITCRASKTVSTSSYSYMHWYQQKPGQPPKLLIKYASYLESGVPSRFSGSGSGTDFTLTISSLQPEDAATYYCQHSREFPWTFGGGTKVEIKRADAAPGGGGSGGGGSGGGGSEVQLVESGGGLVQPGGSLRLSCAASGFTFSNYGMHWVRQAPGKGLEWVSYISSGSSTIYYADSVKGRFTISRDNAKNSLYLQMNSLRAEDTAVYYCARRGLLLDYWGQGTTVTVSS | – | – | – | Yes | penetrated nuclei very well | –
